Measured values taken from ChEMBL document CHEMBL2150974 (J Med Chem, 2012).
Calls of active or inactive are those of the source. No cut-off for these calls is given here.

How the values were obtained:
[1] = biological target: Insulin-like growth factor 1 receptor (Homo sapiens) (UniProt P08069); test: Inhibition of IGF1R at 10 uM
[2] = biological target: Casein kinase II subunit alpha (Homo sapiens) (UniProt P68400); test: Inhibition of CK2alpha1 at 10 uM
[3] = biological target: RAC-alpha serine/threonine-protein kinase (Homo sapiens) (UniProt P31749); test: Inhibition of AKT1 at 10 uM
[4] = biological target: Focal adhesion kinase 1 (Homo sapiens) (UniProt Q05397); test: Inhibition of FAK at 10 uM
[5] = biological target: T1, Mitogen-activated protein kinase 14 (Homo sapiens, UniProt Q16539); test: Inhibition of p38alpha by immunosorbent based kinase assay
[6] = biological target: Insulin receptor (Homo sapiens) (UniProt P06213); test: Inhibition of INSR at 10 uM
[7] = biological target: Aurora kinase B (Homo sapiens) (UniProt Q96GD4); test: Inhibition of AuroraB at 10 uM
[8] = biological target: Hepatocyte growth factor receptor (Homo sapiens) (UniProt P08581); test: Inhibition of MET at 10 uM
[9] = biological target: Serine/threonine-protein kinase N1 (Homo sapiens) (UniProt Q16512); test: Inhibition of PRK1 at 10 uM
[10] = system: Serine/threonine-protein kinase B-raf (Homo sapiens), P15056 [V600E]; test: Inhibition of BRAF V600E mutant at 10 uM
[11] = biological target: T2, Serine/threonine-protein kinase PLK4 (Homo sapiens) (UniProt O00444); test: Inhibition of SAK at 10 uM
T2 sequence (whole entry): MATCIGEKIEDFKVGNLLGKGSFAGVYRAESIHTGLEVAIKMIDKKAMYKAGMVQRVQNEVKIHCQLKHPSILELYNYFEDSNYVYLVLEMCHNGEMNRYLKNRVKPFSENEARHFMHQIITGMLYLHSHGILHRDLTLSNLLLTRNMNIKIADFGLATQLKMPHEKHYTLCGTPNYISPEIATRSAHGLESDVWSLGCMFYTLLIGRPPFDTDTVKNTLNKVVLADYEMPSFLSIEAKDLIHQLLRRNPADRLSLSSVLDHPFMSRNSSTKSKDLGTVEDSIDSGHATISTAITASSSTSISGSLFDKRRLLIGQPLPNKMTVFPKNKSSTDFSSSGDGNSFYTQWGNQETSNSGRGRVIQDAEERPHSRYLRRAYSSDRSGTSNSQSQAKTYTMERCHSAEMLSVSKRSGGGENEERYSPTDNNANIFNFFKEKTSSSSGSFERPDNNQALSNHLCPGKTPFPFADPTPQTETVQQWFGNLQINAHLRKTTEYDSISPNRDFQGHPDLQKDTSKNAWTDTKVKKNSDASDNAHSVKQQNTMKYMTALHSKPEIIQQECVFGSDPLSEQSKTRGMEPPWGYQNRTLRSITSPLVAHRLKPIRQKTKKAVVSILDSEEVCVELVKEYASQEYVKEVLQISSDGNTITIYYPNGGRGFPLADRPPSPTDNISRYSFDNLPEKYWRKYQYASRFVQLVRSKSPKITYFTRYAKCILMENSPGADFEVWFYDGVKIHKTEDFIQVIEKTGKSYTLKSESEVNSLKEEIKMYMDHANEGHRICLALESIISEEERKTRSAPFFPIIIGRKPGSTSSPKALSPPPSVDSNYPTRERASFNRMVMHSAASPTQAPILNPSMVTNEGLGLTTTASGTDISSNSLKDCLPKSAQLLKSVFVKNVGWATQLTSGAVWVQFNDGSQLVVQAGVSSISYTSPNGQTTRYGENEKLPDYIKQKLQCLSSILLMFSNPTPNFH

[12] = biological target: T1, Mitogen-activated protein kinase 14; test: Inhibition of p38alpha-dependent TNFalpha production in human whole blood
[13] = biological target: BDNF/NT-3 growth factors receptor (Homo sapiens) (UniProt Q16620); test: Inhibition of TRKB at 10 uM
[14] = biological target: Tyrosine-protein kinase receptor UFO (Homo sapiens) (UniProt P30530); test: Inhibition of AXL at 10 uM
[15] = biological target: Serine/threonine-protein kinase PLK1 (Homo sapiens) (UniProt P53350); test: Inhibition of PLK1 at 10 uM
[16] = biological target: Vascular endothelial growth factor receptor 2 (Homo sapiens) (UniProt P35968); test: Inhibition of VEGFR2 at 10 uM
[17] = biological target: Proto-oncogene tyrosine-protein kinase Src (Homo sapiens) (UniProt P12931); test: Inhibition of SRC at 10 uM
[18] = biological target: T3, NUAK family SNF1-like kinase 1 (Homo sapiens) (UniProt O60285); test: Inhibition of ARK5 at 10 uM
T3 sequence (whole entry): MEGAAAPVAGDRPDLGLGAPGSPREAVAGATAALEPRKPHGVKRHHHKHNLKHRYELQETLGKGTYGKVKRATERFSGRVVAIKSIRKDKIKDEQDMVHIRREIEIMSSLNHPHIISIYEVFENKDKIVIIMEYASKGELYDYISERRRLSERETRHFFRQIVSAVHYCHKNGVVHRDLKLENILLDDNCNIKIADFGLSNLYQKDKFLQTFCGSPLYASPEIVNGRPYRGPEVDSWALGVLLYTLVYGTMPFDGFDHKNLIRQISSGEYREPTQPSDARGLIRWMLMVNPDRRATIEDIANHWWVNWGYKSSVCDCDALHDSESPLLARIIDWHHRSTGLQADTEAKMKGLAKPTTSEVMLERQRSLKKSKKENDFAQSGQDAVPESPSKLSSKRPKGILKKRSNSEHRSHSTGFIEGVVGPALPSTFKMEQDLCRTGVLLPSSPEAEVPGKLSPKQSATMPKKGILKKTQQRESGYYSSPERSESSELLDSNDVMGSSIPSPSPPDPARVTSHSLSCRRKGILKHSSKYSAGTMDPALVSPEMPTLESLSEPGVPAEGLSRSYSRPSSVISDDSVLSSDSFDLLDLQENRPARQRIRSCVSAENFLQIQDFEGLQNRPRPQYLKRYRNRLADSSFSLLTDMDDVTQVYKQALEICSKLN

Sequence of Vascular endothelial growth factor receptor 2 (Homo sapiens) (P35968 whole entry): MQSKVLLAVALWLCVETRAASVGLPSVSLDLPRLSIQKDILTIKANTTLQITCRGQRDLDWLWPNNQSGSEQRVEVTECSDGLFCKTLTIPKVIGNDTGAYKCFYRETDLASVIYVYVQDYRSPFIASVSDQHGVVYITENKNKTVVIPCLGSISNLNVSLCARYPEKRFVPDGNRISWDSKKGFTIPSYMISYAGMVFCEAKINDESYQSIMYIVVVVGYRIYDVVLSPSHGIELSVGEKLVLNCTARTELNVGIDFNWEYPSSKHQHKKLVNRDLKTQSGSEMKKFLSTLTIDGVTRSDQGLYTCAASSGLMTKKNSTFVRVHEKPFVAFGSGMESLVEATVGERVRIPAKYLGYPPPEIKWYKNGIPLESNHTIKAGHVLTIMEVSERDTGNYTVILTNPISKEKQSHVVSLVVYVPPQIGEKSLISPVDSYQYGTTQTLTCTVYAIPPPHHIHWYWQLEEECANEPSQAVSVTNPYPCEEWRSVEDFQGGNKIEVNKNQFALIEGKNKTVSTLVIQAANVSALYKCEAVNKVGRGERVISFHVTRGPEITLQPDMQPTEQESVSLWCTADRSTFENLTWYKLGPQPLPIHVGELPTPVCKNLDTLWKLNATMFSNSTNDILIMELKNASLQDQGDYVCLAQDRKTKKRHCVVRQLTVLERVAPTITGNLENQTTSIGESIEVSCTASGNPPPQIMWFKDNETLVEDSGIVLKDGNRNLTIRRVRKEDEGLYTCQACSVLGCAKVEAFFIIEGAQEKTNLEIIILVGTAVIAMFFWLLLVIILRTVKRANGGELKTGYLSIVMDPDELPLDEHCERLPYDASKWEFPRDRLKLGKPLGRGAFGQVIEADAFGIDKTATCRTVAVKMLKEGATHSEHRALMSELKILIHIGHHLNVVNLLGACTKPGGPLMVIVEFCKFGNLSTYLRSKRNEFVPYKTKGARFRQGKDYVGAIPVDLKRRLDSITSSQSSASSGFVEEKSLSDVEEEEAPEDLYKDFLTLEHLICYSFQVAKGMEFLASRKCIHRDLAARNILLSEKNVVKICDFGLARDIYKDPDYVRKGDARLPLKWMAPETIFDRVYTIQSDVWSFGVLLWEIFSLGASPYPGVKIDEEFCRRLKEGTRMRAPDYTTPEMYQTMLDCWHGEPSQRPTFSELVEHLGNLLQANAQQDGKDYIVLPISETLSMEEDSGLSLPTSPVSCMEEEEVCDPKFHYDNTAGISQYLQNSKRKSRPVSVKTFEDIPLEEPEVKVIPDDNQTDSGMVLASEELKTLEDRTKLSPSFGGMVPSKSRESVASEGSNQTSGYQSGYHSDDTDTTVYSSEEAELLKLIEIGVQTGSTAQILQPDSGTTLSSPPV
Sequence of Insulin receptor (Homo sapiens) (P06213 28-758 limits assumed): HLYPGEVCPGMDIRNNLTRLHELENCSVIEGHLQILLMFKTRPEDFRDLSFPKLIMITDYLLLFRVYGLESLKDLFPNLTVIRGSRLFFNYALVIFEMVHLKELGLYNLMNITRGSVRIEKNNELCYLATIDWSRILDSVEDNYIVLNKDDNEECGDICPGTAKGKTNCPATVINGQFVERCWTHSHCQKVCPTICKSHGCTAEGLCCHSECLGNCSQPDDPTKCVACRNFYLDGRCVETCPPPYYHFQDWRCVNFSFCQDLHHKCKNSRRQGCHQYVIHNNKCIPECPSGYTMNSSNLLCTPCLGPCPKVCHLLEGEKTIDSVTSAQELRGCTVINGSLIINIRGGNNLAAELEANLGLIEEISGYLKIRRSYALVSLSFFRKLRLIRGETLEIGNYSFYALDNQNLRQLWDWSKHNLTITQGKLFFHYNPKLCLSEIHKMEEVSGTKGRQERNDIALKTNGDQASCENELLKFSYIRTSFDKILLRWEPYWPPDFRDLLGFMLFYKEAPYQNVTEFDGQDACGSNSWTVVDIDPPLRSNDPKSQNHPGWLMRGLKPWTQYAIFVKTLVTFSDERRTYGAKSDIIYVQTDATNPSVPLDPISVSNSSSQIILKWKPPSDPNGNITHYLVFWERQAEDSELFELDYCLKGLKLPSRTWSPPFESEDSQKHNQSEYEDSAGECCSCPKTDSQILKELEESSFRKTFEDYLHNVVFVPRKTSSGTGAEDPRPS
Sequence of Insulin receptor (Homo sapiens) (P06213 763-1382 limits assumed): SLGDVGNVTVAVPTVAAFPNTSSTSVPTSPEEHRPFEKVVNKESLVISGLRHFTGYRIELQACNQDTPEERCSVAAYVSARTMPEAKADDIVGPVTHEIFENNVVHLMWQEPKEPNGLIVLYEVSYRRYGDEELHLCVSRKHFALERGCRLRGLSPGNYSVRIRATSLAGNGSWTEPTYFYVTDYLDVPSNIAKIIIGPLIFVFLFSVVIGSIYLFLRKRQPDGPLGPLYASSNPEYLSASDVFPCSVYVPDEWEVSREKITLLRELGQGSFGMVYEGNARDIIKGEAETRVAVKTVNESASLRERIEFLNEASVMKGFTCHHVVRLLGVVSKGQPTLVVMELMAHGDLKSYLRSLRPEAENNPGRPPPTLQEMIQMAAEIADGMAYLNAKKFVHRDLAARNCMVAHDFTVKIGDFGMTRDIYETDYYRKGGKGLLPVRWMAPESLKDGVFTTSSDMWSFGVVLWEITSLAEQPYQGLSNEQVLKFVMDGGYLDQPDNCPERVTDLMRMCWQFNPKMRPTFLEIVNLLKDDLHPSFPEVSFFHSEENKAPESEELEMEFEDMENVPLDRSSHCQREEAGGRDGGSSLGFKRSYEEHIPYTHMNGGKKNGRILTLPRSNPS
Sequence of RAC-alpha serine/threonine-protein kinase (Homo sapiens) (P31749 whole entry): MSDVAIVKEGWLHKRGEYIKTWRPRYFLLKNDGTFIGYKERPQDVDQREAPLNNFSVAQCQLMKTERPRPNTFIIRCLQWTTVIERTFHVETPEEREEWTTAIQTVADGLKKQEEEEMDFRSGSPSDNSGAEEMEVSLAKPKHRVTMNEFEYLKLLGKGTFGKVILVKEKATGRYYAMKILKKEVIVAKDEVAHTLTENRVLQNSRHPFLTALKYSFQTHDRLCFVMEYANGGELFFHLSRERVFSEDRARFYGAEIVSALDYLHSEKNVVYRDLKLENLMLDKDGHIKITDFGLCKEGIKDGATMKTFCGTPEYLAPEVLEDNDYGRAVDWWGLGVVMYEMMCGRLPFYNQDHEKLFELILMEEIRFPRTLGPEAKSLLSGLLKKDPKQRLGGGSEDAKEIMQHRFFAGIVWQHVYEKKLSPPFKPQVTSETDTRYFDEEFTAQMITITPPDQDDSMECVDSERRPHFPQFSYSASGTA
Sequence of Hepatocyte growth factor receptor (Homo sapiens) (P08581 whole entry): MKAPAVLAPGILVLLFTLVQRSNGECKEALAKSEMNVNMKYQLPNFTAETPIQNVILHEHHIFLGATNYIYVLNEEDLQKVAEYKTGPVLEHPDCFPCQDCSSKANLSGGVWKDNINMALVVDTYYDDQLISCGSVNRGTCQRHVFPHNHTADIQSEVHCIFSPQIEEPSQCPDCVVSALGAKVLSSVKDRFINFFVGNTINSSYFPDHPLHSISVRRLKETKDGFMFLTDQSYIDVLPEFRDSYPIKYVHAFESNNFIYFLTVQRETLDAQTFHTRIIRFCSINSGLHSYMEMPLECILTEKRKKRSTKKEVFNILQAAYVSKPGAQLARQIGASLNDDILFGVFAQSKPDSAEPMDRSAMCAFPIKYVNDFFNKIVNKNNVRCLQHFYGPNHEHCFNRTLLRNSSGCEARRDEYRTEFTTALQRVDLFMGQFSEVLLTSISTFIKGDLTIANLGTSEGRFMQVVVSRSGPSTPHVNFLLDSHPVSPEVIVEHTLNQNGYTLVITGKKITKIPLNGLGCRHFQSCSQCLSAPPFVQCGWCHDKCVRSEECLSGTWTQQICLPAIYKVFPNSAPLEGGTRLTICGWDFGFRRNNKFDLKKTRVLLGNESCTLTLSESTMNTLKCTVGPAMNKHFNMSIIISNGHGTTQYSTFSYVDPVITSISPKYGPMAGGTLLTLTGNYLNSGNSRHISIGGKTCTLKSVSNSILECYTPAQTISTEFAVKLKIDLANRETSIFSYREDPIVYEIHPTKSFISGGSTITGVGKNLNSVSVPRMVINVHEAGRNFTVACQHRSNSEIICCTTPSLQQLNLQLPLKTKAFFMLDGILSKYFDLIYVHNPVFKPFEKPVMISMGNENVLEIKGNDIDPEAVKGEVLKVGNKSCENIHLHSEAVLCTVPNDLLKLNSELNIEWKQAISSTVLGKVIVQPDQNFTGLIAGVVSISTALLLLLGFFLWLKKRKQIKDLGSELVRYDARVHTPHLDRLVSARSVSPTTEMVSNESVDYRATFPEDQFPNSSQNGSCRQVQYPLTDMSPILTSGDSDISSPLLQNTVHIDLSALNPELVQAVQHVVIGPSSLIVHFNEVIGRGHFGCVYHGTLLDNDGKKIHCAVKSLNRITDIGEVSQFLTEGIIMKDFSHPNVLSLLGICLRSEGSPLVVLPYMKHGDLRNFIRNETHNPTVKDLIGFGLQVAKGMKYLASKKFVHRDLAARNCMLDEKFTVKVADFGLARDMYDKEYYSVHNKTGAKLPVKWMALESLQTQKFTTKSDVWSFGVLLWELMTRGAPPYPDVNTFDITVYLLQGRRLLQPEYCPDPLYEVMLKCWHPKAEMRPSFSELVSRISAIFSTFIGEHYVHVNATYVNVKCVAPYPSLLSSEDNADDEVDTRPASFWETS
Sequence of Aurora kinase B (Homo sapiens) (Q96GD4 whole entry): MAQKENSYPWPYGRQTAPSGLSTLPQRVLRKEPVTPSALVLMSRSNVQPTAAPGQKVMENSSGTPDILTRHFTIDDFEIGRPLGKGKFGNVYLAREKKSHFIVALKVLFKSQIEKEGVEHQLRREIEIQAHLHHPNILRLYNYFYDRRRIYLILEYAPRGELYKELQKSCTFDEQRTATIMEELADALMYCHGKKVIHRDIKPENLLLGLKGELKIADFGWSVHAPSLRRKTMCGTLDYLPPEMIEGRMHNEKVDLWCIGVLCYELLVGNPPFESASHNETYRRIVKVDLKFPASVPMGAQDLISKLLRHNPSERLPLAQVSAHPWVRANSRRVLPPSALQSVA

Row | inhibition [1] | inhibition [2] | inhibition [3] | inhibition [4] | IC50 [5] | inhibition [6] | inhibition [7] | inhibition [8] | inhibition [9] | inhibition [10] | inhibition [11] | IC50 [12] | inhibition [13] | inhibition [14] | inhibition [15] | inhibition [16] | inhibition [17] | inhibition [18] | Structure (SMILES)
1 | inactive | inactive | inactive | inactive | 0.04 µM | inactive | inactive | inactive | inactive | inactive | inactive | 78.8 µM | inactive | inactive | inactive | inactive | inactive | inactive | Nc1ccccc1Nc1ccc2c(c1)CCc1c(OC[C@H](O)CO)cccc1C2=O
2 | inactive | inactive | inactive | inactive | 0.08 µM | inactive | inactive | inactive | inactive | inactive | inactive | 78.7 µM | inactive | inactive | inactive | inactive | inactive | inactive | COc1cccc2c1CCc1cc(Nc3ccc(F)cc3F)ccc1C2=O
3 | inactive | inactive | inactive | inactive | 0.008 µM | inactive | inactive | inactive | inactive | inactive | inactive | 0.19 µM | inactive | inactive | inactive | inactive | inactive | inactive | O=C1c2ccc(Nc3ccc(F)cc3F)cc2CCc2ccc(OCCCO)cc21
4 | inactive | inactive | inactive | inactive | 0.56 µM | inactive | inactive | inactive | inactive | inactive | inactive | 4.6 µM | inactive | inactive | inactive | inactive | inactive | inactive | COc1ccc2c(c1)C(=O)c1ccc(Nc3ccccc3Cl)cc1CC2
5 | inactive | inactive | inactive | inactive | 0.06 µM | inactive | inactive | inactive | inactive | inactive | inactive | 3.9 µM | inactive | inactive | inactive | inactive | inactive | inactive | COc1ccc2c(c1)C(=O)c1ccc(Nc3ccc(F)cc3C)cc1CC2
6 | inactive | inactive | inactive | inactive | 0.02 µM | inactive | inactive | inactive | inactive | inactive | inactive | 170 µM | inactive | inactive | inactive | inactive | inactive | inactive | CC1(C)OC[C@H](COc2ccc3c(c2)CCc2cc(Nc4ccc(F)cc4F)ccc2C3=O)O1
